Laboratory results taken from patent US4393225A, “AI-77 Compounds and pharmaceutically acceptable salts thereof” (Asahi Kasei Kogyo Kabushiki Kaisha, priority 1979, dated 1983).

The compounds below were run on ulcer (assay: Anti-ulcer test (restraint and water immersion ulcer in rats, i.p.)). Settings: Rattus norvegicus, ip, read-out: % Inhibition of Ulcer.
Assay type: in vivo, Male Wistar rats
Experimental: The anti-ulcer and anti-edema activity of the compounds was evaluated in efficacy tests described below.
Male Wistar rats weighing about 150 g on average were not fed for 24 hours before the test. Then a solution or suspension of a predetermined concentration of the test compound in physiological saline was administered to them intraperitoneally. One hour after the administration,each rat was restrained in a net cage and submerged in a water both (21° C.) from the tail to xiphistrenun for 6 hours. Test animals were then killed (by dislocation of the cervical vertebrae), the stomach was removed and incised along the curvatura ventriculi major, and the inside wall of the stomach was pathologically examined under microscopic observation. Rats in which the occurrence of an ulceration was substantially not observed were rated O, while others were rated 0.5, 1, 2 or 3, depending on the severity of the ulcer development. The percent inhibition of ulcer was calculated by the following formula: [formula]
Compound `CSC(C)(C)CC(=O)NC1CC(=O)OC1C(O)C(=O)NC(CC(C)C)C1Cc2cccc(O)c2C(=O)O1` (stereo not drawn) [IIIa-1-82] has an inhibition in vivo at 50 mg/kg of 66%.
With `CC(C)CC(NC(=NC(C)C)C(O)C(O)C(N)CC(=O)O)C1Cc2cccc(O)c2C(=O)O1` (stereo not drawn) [Vb-1-41] the inhibition in vivo at 50 mg/kg was 89%.
In the case of `CCCCNC(CC(N)=O)C(O)C(OC(=O)CCC)C(=O)NC(CC(C)C)C1Cc2cccc(O)c2C(=O)O1` (stereo not drawn) [VII-11-3], the inhibition in vivo at 25 mg/kg is reported as 66%.

Same assay, conditions: Rattus norvegicus, ip; 25 mg/kg i.p.; read-out: % Inhibition of Ulcer
`CCCCOC(C(=O)NC(CC(C)C)C1Cc2cccc(OC)c2C(=O)O1)C(O)C(N)CC(N)=O` (stereo not drawn) [VII-7-1] showed an inhibition in vivo at 25 mg/kg of 89%.
Compound `CNC(CC(N)=O)C(O)C(O)C(=O)NC(CC(C)C)C1Cc2cccc(OC(C)=O)c2C(=O)O1` (stereo not drawn) [VII-22-1] has an inhibition in vivo at 25 mg/kg of 78%.
`CCCCOc1cccc2c1C(=O)OC(C(CC(C)C)NC(=O)C(OCCCC)C(O)C(CC(N)=O)NC)C2` (stereo not drawn) [VII-25-3] showed an inhibition in vivo at 25 mg/kg of 56%.
With `CCNC(=O)CC(N)C(O)C(O)C(=O)NC(CC(C)C)C1Cc2cccc(O)c2C(=O)O1` (stereo not drawn) [VII-1-3] the inhibition in vivo at 25 mg/kg was 100%.

Same assay, conditions: Rattus norvegicus, ip; 50 mg/kg i.p.; read-out: % Inhibition of Ulcer
For `CCCCCc1ccc(C(=O)NC2CC(=O)OC2C(O)C(=O)NC(CC(C)C)C2Cc3cccc(OCC)c3C(=O)O2)cc1` (stereo not drawn) [IIIa-5-73], the inhibition in vivo at 50 mg/kg was 44%.
Work on `CCCCNC1CC(=O)OC1C(OCCCC)C(=O)NC(CC(C)C)C1Cc2cccc(OC)c2C(=O)O1` (stereo not drawn) [IIIa-24-10] yielded an inhibition in vivo at 50 mg/kg of 56%.
For `CC(C)CC(NC(=O)C(O)C1OC(=O)CC1NC(=O)C(Cl)(Cl)Cl)C1Cc2cccc(O)c2C(=O)O1` (stereo not drawn) [IIIa-1-12], the inhibition in vivo at 50 mg/kg was 66%.
In the case of `CCCCCCCCC=CCCCCCCCC(=O)NC1CC(=O)OC1C(OC(C)=O)C(=O)NC(CC(C)C)C1Cc2cccc(OCC)c2C(=O)O1` (stereo not drawn) [IIIa-6-5], the inhibition in vivo at 50 mg/kg is reported as 22%.
In the case of `CCCOC(C(=O)NC(CC(C)C)C1Cc2cccc(OCC)c2C(=O)O1)C1OC(=O)CC1N` (stereo not drawn) [IIIa-15-8], the inhibition in vivo at 50 mg/kg is reported as 56%.
Work on `CCCCOC(C(=O)NC(CC(C)C)C1Cc2cccc(OC)c2C(=O)O1)C1OC(=O)CC1NC(=O)CCC` (stereo not drawn) [IIIa-7-10] yielded an inhibition in vivo at 50 mg/kg of 33%.
For `CC(C)CC(NC(=O)C(O)C1C=CC(=O)O1)C1Cc2cccc(OCCC3CCCCO3)c2C(=O)O1` (stereo not drawn) [IVa-4-15], the inhibition in vivo at 50 mg/kg was 44%.
With `CC(C)CC(NC(=O)C(O)C1OC(=O)CC1NC(=O)c1cccs1)C1Cc2cccc(O)c2C(=O)O1` (stereo not drawn) [IIIa-1-25] the inhibition in vivo at 50 mg/kg was 66%.
`CC(C)CC(NC(=NCCN1CCOCC1)C(O)C(O)C(N)CC(=O)O)C1Cc2cccc(O)c2C(=O)O1` (stereo not drawn) [Vb-1-44] gave an inhibition in vivo at 50 mg/kg of 94%.
For `CC(Br)=C(C)C(=O)NC1CC(=O)OC1C(O)C(=O)NC(CC(C)C)C1Cc2cccc(O)c2C(=O)O1` (stereo not drawn) [IIIa-1-80], the inhibition in vivo at 50 mg/kg was 66%.
For `CCCCCCCCCCCCCCCCCC(=O)NC1CC(=O)OC1C(O)C(=O)NC(CC(C)C)C1Cc2cccc(O)c2C(=O)O1` (stereo not drawn) [IIIa-1-11], the inhibition in vivo at 50 mg/kg was 44%.
`CCCCCCCCCCCCOc1cccc2c1C(=O)OC(C(CC(C)C)NC(=O)C(O)C1OC(=O)CC1NC(C)=O)C2` (stereo not drawn) [IIIa-5-9] showed an inhibition in vivo at 50 mg/kg of 33%.
`Cc1ccc(N=C(NC(CC(C)C)C2Cc3cccc(O)c3C(=O)O2)C(O)C(O)C(N)CC(=O)O)cc1` (stereo not drawn) [Vb-1-42] gave an inhibition in vivo at 50 mg/kg of 83%.
With `CCCCOc1cccc2c1C(=O)OC(C(CC(C)C)NC(=O)C(O)C1C=CC(=O)O1)C2` (stereo not drawn) [IVa-4-3] the inhibition in vivo at 50 mg/kg was 44%.
For `CNC1CC(=O)OC1C(OC)C(=O)NC(CC(C)C)C1Cc2cccc(O)c2C(=O)O1` (stereo not drawn) [IIIa-34-1], the inhibition in vivo at 50 mg/kg was 66%.
For `CCCC(=O)Oc1cccc2c1C(=O)OC(C(CC(C)C)NC(=N)C(OCC)C(O)C(N)CC(=O)O)C2` (stereo not drawn) [Vb-9-2], the inhibition in vivo at 50 mg/kg was 66%.
Work on `CCCCCCCCC=CCCCCCCCC(=O)OC(C(=O)NC(CC(C)C)C1Cc2cccc(OC(=O)CC)c2C(=O)O1)C1OC(=O)CC1N` (stereo not drawn) [IIIa-11-5] yielded an inhibition in vivo at 50 mg/kg of 44%.
Compound `CCCCCCCCCCCCCCCCCC(=O)Oc1cccc2c1C(=O)OC(C(CC(C)C)NC(=O)C(OCCCC)C1OC(=O)CC1NCC)C2` (stereo not drawn) [IIIa-26-5] has an inhibition in vivo at 50 mg/kg of 56%.
Work on `CCCCCCCC(=O)Oc1cccc2c1C(=O)OC(C(CC(C)C)NC(=O)C(O)C1C=CC(=O)O1)C2` (stereo not drawn) [IVa-3-7] yielded an inhibition in vivo at 50 mg/kg of 33%.
Compound `CCCCOc1cccc2c1C(=O)OC(C(CC(C)C)NC(=O)C(OCCCC)C1OC(=O)CC1N)C2` (stereo not drawn) [IIIa-15-2] has an inhibition in vivo at 50 mg/kg of 56%.
